Molecules are shown by their SMILES.

For 2 compounds, IC50 and JAK2/JAK1 results are on record in patent US10519163B2, “Pyrrolopyrimidine derivatives as TAM inhibitors” (Incyte Corporation, priority 2015, dated 2019).

For assay [1], the target named is phosphor-Axl (Homo sapiens (Human), UniProt P30530). The assay is described as follows: TAM Kinase Assay (HTRF), phosphor-Axl.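 Also: test enzyme was recombinant Axl protein, pre-activated by autophosphorylation with ATP and MgCl2.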 Type of assay: biochemical. Particulars: 5.1 nM phosphor-Axl, HTRF, 60 min room temperature; read-out: Phospho-Axl IC50. A general note: In TR-FRET formats the signal depends on donor and acceptor labels being close together.
Protocol: Autophosphorylation of Axl was carried out by incubating the recombinant Axl protein (Life Technologies, PV4275) in buffer containing 50 mM Tris, pH7.5, 0.2 mg/ml Axl, 5 mM ATP, 20 mM MgCl2 and 2 mM DTT at room temperature for 1 hour.
(§1) 0.1 ul test compounds dissolved in DMSO were transferred from compound plates to white 384-well assay plates (Greiner [sequence] plates). […] The plate was protected from light and incubated at room temperature for 60 min.
Assay [2] concerns the target Tyro3 (Homo sapiens (Human), UniProt Q06418). The assay is described as follows: TAM Kinase Assay (HTRF), Tyro3. In kind it is biochemical. The conditions noted are these: 0.366 nM Tyro3, HTRF, 60 min room temperature; read-out: Tyro3IC50.
Protocol: as §1
The target of assay [3] is JAK1 (Homo sapiens (Human), UniProt P23458). Particulars: cited from earlier work.
Chain of JAK1 (P23458 whole entry, species assumed): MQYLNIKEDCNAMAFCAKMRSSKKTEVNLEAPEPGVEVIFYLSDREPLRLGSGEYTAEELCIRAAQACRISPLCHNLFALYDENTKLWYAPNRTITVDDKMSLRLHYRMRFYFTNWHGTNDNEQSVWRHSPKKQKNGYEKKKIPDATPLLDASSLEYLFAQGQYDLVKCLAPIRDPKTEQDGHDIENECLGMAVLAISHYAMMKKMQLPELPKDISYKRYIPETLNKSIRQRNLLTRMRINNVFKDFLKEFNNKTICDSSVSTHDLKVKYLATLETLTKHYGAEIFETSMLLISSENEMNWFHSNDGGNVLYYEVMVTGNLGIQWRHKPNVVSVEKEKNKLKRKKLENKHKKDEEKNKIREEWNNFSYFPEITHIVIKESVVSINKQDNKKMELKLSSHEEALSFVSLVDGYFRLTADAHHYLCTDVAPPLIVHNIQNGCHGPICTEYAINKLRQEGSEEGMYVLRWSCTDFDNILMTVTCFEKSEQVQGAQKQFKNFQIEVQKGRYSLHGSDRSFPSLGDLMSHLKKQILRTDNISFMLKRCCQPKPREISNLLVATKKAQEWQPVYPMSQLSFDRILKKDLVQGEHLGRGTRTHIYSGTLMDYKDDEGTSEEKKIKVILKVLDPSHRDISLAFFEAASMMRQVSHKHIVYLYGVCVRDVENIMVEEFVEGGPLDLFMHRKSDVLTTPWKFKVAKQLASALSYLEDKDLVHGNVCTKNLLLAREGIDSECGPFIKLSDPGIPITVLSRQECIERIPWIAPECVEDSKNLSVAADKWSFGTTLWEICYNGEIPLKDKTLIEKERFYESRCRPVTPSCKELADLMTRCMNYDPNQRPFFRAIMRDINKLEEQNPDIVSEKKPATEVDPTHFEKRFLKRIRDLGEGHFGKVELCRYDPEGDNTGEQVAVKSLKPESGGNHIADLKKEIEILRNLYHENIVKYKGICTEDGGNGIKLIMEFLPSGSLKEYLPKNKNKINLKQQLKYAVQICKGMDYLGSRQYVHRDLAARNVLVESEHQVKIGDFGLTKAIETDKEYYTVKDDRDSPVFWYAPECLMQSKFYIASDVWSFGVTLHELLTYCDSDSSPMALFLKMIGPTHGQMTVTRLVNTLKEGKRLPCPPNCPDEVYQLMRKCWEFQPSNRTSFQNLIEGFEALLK
For assay [4], the target named is JAK2 (Homo sapiens (Human), UniProt O60674). The conditions noted are these: selectivity ratio, IC50 at 1 mM ATP; cited from earlier work.
Chain of JAK2 (O60674 whole entry, species assumed): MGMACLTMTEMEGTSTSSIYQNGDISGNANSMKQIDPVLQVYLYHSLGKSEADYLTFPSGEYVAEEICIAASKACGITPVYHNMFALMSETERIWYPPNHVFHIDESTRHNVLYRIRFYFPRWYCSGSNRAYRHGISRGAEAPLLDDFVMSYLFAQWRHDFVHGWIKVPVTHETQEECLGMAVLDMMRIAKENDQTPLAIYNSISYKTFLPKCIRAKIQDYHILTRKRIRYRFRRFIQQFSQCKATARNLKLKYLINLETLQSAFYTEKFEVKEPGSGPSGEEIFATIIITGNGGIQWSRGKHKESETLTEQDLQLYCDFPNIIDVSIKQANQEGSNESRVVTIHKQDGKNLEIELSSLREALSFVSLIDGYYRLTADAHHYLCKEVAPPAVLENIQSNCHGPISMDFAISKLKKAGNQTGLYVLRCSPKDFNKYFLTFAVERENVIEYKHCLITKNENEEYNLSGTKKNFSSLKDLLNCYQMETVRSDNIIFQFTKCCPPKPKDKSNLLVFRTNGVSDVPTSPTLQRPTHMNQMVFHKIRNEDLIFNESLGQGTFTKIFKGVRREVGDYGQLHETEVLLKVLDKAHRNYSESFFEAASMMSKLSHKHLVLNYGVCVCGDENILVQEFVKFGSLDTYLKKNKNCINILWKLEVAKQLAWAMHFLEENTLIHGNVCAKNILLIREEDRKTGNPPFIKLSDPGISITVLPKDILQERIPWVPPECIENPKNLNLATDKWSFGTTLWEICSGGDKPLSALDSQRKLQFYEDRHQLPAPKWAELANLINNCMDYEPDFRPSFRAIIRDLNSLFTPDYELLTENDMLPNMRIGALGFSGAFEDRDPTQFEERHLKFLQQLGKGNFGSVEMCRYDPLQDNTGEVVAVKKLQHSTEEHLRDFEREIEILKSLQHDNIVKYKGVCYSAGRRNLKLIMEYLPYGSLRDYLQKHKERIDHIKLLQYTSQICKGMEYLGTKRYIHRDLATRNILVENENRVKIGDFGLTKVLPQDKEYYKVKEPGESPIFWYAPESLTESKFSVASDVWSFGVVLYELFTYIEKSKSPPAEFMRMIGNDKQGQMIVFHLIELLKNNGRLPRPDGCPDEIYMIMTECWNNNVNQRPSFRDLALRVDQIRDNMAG
Assay [5] deals with PI3Kδ (Homo sapiens (Human), UniProt O00329). The conditions noted are these: cited from earlier work.
Chain of PI3Kδ (O00329 whole entry, looked up, species assumed): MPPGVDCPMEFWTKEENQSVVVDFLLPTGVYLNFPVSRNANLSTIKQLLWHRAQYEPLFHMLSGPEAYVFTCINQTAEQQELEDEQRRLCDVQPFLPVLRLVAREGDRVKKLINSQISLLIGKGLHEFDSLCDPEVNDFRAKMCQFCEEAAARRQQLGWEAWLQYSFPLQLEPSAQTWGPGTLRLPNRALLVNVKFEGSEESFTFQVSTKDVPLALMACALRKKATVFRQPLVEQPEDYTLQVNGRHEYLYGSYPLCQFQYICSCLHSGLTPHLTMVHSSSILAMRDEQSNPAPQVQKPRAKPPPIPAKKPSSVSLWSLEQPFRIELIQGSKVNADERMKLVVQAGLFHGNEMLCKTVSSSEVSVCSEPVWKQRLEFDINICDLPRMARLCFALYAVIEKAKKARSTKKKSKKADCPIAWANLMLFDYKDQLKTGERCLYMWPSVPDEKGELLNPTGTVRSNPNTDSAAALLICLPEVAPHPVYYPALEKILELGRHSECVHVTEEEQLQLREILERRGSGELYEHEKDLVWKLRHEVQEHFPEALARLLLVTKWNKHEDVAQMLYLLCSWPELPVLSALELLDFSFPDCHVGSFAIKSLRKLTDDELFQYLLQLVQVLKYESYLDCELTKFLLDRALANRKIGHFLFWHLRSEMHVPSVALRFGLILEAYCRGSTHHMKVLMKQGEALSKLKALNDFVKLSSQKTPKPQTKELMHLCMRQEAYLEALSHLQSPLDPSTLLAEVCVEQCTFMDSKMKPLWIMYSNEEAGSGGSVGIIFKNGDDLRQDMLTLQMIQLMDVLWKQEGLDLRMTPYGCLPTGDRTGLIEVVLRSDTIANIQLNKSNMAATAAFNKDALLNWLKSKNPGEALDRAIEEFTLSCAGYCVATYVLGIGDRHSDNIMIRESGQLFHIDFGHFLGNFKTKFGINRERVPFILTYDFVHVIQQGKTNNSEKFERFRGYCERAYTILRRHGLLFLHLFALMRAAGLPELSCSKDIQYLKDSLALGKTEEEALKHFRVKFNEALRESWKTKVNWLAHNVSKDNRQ
Chain of PI3Kδ (P27986 whole entry partner, looked up, species assumed): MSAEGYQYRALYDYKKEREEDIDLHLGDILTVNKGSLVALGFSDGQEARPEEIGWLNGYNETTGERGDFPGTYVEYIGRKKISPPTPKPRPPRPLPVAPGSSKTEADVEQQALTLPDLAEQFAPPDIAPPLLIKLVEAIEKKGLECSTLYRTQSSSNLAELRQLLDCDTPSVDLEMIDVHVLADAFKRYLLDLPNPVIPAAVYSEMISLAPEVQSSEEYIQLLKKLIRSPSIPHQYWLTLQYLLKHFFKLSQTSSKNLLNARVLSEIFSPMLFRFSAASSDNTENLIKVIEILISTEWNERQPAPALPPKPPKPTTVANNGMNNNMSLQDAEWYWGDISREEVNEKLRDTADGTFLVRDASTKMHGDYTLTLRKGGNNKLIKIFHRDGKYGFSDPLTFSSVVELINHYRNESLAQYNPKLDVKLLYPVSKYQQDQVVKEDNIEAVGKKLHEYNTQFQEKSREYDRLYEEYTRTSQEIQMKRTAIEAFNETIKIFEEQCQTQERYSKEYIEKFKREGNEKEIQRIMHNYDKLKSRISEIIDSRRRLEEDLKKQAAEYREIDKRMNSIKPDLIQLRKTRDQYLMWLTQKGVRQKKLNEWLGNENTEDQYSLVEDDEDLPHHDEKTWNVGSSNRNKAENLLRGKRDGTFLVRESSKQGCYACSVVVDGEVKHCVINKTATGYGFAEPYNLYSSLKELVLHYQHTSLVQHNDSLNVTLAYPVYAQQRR

Chain of Tyro3 (Q06418 41-890): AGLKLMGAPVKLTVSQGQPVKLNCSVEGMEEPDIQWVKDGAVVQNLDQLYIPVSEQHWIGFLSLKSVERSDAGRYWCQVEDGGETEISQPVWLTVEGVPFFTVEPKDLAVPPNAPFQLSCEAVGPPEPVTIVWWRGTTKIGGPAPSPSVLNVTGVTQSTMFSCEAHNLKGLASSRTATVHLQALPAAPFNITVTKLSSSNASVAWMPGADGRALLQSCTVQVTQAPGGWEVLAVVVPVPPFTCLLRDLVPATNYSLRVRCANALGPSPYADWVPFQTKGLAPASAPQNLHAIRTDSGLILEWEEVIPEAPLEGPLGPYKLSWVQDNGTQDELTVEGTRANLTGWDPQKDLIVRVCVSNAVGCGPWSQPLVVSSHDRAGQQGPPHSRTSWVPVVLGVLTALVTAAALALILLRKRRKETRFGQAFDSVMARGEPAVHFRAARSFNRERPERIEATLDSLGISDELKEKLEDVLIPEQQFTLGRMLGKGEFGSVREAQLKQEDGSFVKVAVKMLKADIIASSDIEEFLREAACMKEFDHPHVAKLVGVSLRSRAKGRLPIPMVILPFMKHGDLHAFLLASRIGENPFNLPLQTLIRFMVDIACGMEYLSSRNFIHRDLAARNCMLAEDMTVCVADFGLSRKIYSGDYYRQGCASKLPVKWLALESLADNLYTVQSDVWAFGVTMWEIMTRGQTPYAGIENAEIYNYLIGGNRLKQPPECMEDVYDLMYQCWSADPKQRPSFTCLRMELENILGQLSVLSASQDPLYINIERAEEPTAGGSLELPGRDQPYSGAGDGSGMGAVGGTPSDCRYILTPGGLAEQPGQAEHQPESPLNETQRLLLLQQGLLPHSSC

For `O=C(NCC1(c2cccc(-c3ncnc4[nH]ccc34)c2)Cc2ccccc2C1)C1CCC1` [Example 26, N-({2-[3-(7H-Pyrrolo[2,3-d]pyrimidin-4-yl)phenyl]-2,3-dihydro-1H-inden-2-yl}methyl)cyclobutanecarboxamide], the IC50 in assay [1] is less than 0.5 µM; in assay [2] it was more than 3 µM; in assay [3], less than 0.01 µM. In addition, the JAK2/JAK1 in assay [4] is more than 10.
In the case of `O=C(NCC1(c2cccc(-c3ncnc4[nH]ccc34)c2)Cc2ccccc2C1)c1ccco1` [Example 34, N-({2-[3-(7H-Pyrrolo[2,3-d]pyrimidin-4-yl)phenyl]-2,3-dihydro-1H-inden-2-yl}methyl)-2-furamide], the IC50 in assay [2] was more than 3 µM; in assay [5] it was 0.05 to 0.1 µM.
